Measurements taken from DBAASP.
≈ marks a conversion by molar mass, not a printed value.

Experiments:
Assay in all cases: ≥ marks a high value that may be exact or a test limit, other limits are often not marked, values filed in µg/mL are converted to µM
[1] = system: Cronobacter muytjensii ATCC 51329
[2] = system: Cronobacter sakazakii ATCC BAA-894
[3] = system: Cronobacter sakazakii DPC 6440
[4] = system: Cronobacter sakazakii DSM 4485
[5] = system: Escherichia coli NCIMB 11843
[6] = system: Klebsiella pneumoniae NCIMB 13218
[7] = system: Pseudomonas fluorescens NCIMB 9046
[8] = system: Salmonella enterica subsp. enterica serovar Typhimurium LT2
[9] = system: Staphylococcus aureus NCTC 8325-4
[10] = system: Staphylococcus aureus Newman
[11] = system: Staphylococcus aureus RF122
[12] = system: Staphylococcus aureus RN4220
[13] = system: Staphylococcus aureus SA113
[14] = system: Candida albicans NCYC 1467
[15] = system: Enterococcus faecalis NCTC 12697
[16] = system: Escherichia coli NCTC 10418
[17] = system: Klebsiella pneumoniae ATCC 43816
[18] = system: Pseudomonas aeruginosa ATCC 27853
[19] = system: Staphylococcus aureus NCTC 10788
[20] = system: Staphylococcus aureus NCTC 12493
[21] = system: Staphylococcus aureus USA 100
[22] = system: Candida albicans ATCC 90028
[23] = system: Pseudomonas aeruginosa ATCC 9027
[24] = system: Staphylococcus aureus USA 300

SMILES | MIC [1] | MIC [2] | MIC [3] | MIC [4] | MIC [5] | MIC [6] | MIC [7] | MIC [8] | MIC [9] | MIC [10] | MIC [11] | MIC [12] | MIC [13] | MIC [14] | MIC [15] | MIC [16] | MIC [17] | MIC [18] | MIC [19] | MIC [20] | also measured
CC[C@H](C)[C@H](N)C(=O)N[C@@H](CCCCN)C(=O)N[C@@H](C)C(=O)N[C@@H](CCC(N)=O)C(=O)NCC(=O)N[C@@H](CC(C)C)C(=O)N1CCC[C@H]1C(=O)N[C@@H](CCC(N)=O)C(=O)N[C@@H](CCC(=O)O)C(=O)O [IKAQGLPQE] | ≥ 2500 µM | ≥ 2500 µM | ≥ 625 µM | ≥ 2500 µM | ≥ 1250 µM | ≥ 1250 µM | ≥ 1250 µM | ≥ 1250 µM | ≥ 1250 µM | ≥ 1250 µM | ≥ 1250 µM | ≥ 1250 µM | ≥ 1250 µM | – | – | – | – | – | – | – | –
CC[C@H](C)[C@H](NC(=O)[C@H](C)NC(=O)[C@H](C)NC(=O)[C@@H]1CCCN1C(=O)[C@@H](NC(=O)[C@H](CC(C)C)NC(=O)[C@H](CCCCN)NC(=O)CNC(=O)[C@H](C)NC(=O)[C@@H](NC(=O)[C@H](CCCCN)NC(=O)[C@H](CC(C)C)NC(=O)[C@@H](NC(=O)[C@H](C)NC(=O)CNC(=O)[C@H](CC(C)C)NC(=O)[C@@H](N)Cc1ccccc1)C(C)C)C(C)C)C(C)C)C(=O)N[C@H]1CSSC[C@@H](C(=O)O)NC(=O)[C@H](CCCCN)NC(=O)[C@H](CCCCN)NC(=O)[C@H](CO)NC(=O)[C@H]([C@@H](C)CC)NC(=O)[C@H](CCCCN)NC1=O [FLGAVLKVAGKLVPAAICKISKKC] | – | – | – | – | – | – | – | – | – | – | – | – | – | 2 µM (≈ 4.91 µg/mL) | 8 µM (≈ 19.6 µg/mL) | 4 µM (≈ 9.82 µg/mL) | 8 µM (≈ 19.6 µg/mL) | 32 µM (≈ 78.6 µg/mL) | 2 µM (≈ 4.91 µg/mL) | 4 µM (≈ 9.82 µg/mL) | –
CSCC[C@H](NC(=O)[C@H](CC(=O)O)NC(=O)[C@@H](NC(=O)[C@@H](NC(=O)[C@H](CCCCN)NC(=O)[C@H](CC(N)=O)NC(=O)[C@H](CC(C)C)NC(=O)[C@@H](NC(=O)[C@H](C)NC(=O)[C@H](CCCCN)NC(=O)CNC(=O)[C@H](C)NC(=O)[C@H](C)NC(=O)[C@H](CCCCN)NC(=O)CNC(=O)[C@@H](NC(=O)[C@H](CC(N)=O)NC(=O)[C@H](CCCCN)NC(=O)[C@H](CC(C)C)NC(=O)[C@H](CC(C)C)NC(=O)[C@H](CC(=O)O)NC(=O)[C@H](CCCCN)NC(=O)[C@H](Cc1c[nH]c2ccccc12)NC(=O)[C@H](CC(C)C)NC(=O)[C@H](C)N)C(C)C)C(C)C)C(C)C)[C@@H](C)O)C(=O)N[C@H](C(=O)N[C@@H](CC(N)=O)C(=O)N[C@@H](CCC(N)=O)C(N)=O)C(C)C [ALWKDLLKNVGKAAGKAVLNKVTDMVNQ] | – | – | – | – | – | – | – | – | – | – | – | – | – | 4 µM (≈ 12.1 µg/mL) | ≥ 128 µM | 4 µM (≈ 12.1 µg/mL) | 8 µM (≈ 24.2 µg/mL) | 8 µM (≈ 24.2 µg/mL) | 4 µM (≈ 12.1 µg/mL) | 8 µM (≈ 24.2 µg/mL) | –
NC(=O)[C@H](CCCN=C(N)N)NC(=O)[C@H](Cc1cnc[nH]1)NC(=O)[C@H](CCCN=C(N)N)NC(=O)[C@@H](N)Cc1cnc[nH]1 [HRHR] | – | – | – | – | – | – | – | – | – | – | – | – | – | – | – | – | – | – | – | – | MIC [21]: ≥ 100 µM
NC(=O)[C@H](Cc1c[nH]c2ccccc12)NC(=O)[C@H](Cc1c[nH]c2ccccc12)NC(=O)[C@H](Cc1c[nH]c2ccccc12)NC(=O)[C@H](CCCN=C(N)N)NC(=O)[C@H](CCCN=C(N)N)NC(=O)[C@@H](N)CCCN=C(N)N [RRRWWW] | – | – | – | – | – | – | – | – | – | – | – | – | – | – | – | – | – | – | – | – | MIC [22]: ≥ 100 µM; MIC [23]: 50 µM (≈ 52.2 µg/mL); MIC [21]: 25 µM (≈ 26.1 µg/mL); MIC [24]: 25 µM (≈ 26.1 µg/mL)
NCCCC[C@H](NC(=O)[C@H](CCCN=C(N)N)NC(=O)[C@@H](N)CCCCN)C(=O)N[C@@H](CCCN=C(N)N)C(N)=O [KRKR] | – | – | – | – | – | – | – | – | – | – | – | – | – | – | – | – | – | – | – | – | MIC [21]: ≥ 100 µM
CC[C@H](C)[C@H](N)C(=O)N[C@@H](CCCCN)C(=O)N[C@@H](Cc1cnc[nH]1)C(=O)N[C@@H](CCCN=C(N)N)C(=O)NCC(=O)N[C@@H](CC(C)C)C(=O)N1CCC[C@H]1C(=O)N[C@@H](CCC(N)=O)C(=O)N[C@@H](CCC(=O)O)C(=O)O [IKHRGLPQE] | ≥ 1250 µM | ≥ 2500 µM | ≥ 312 µM | ≥ 2500 µM | ≥ 1250 µM | ≥ 1250 µM | ≥ 2500 µM | ≥ 1250 µM | ≥ 1250 µM | ≥ 1250 µM | ≥ 625 µM | ≥ 1250 µM | ≥ 1250 µM | – | – | – | – | – | – | – | –
NCCCC[C@H](NC(=O)[C@H](Cc1c[nH]c2ccccc12)NC(=O)[C@H](CCCCN)NC(=O)[C@H](Cc1c[nH]c2ccccc12)NC(=O)[C@H](Cc1c[nH]c2ccccc12)NC(=O)[C@H](CCCCN)NC(=O)[C@H](Cc1c[nH]c2ccccc12)NC(=O)[C@@H](N)CCCCN)C(N)=O [KWKWWKWK] | – | – | – | – | – | – | – | – | – | – | – | – | – | – | – | – | – | – | – | – | MIC [22]: ≥ 100 µM; MIC [23]: 50 µM (≈ 63.7 µg/mL); MIC [21]: 12.5 µM (≈ 15.9 µg/mL); MIC [24]: 6.25 µM (≈ 7.97 µg/mL)

The next lines start with results.

MIC [1] | MIC [2] | MIC [3] | MIC [4] | MIC [5] | MIC [6] | MIC [7] | MIC [8] | MIC [9] | MIC [10] | MIC [11] | MIC [12] | MIC [13] | MIC [14] | MIC [15] | MIC [16] | MIC [17] | MIC [18] | MIC [19] | MIC [20] | SMILES | also measured
≥ 1250 µM | ≥ 625 µM | ≥ 1250 µM | ≥ 1250 µM | ≥ 1250 µM | ≥ 2500 µM | ≥ 1250 µM | ≥ 2500 µM | ≥ 2500 µM | ≥ 2500 µM | ≥ 625 µM | ≥ 2500 µM | ≥ 2500 µM | – | – | – | – | – | – | – | CC[C@H](C)[C@H](N)C(=O)N[C@@H](CCCN=C(N)N)C(=O)N[C@@H](Cc1cnc[nH]1)C(=O)N[C@@H](CCC(N)=O)C(=O)NCC(=O)N[C@@H](CC(C)C)C(=O)N1CCC[C@H]1C(=O)N[C@@H](CCC(N)=O)C(=O)N[C@@H](CCC(=O)O)C(=O)O [IRHQGLPQE] | –
– | – | – | – | – | – | – | – | – | – | – | – | – | ≥ 512 µM | ≥ 512 µM | ≥ 512 µM | ≥ 512 µM | > 512 µM | ≥ 512 µM | ≥ 512 µM | CC[C@H](C)[C@@H]1NC(=O)[C@H](C)NC(=O)[C@@H](NC(=O)[C@H](CCCCN)NC(=O)[C@H](C)NC(=O)[C@H](C)NC(=O)[C@H](CC(C)C)NC(=O)CNC(=O)[C@H](C)NC(=O)[C@@H](NC(=O)[C@H](CC(C)C)NC(=O)[C@@H]2CCCN2C(=O)[C@H](CC(C)C)NC(=O)[C@@H](N)Cc2ccccc2)[C@@H](C)CC)CSSC[C@@H](C(=O)O)NC(=O)[C@H](CCCCN)NC(=O)[C@H](CCCCN)NC(=O)[C@H]([C@@H](C)O)NC1=O [FLPLIAGLAAKCAITKKC] | –
– | – | – | – | – | – | – | – | – | – | – | – | – | ≥ 512 µM | ≥ 512 µM | ≥ 512 µM | ≥ 512 µM | > 512 µM | ≥ 512 µM | ≥ 512 µM | CC(C)C[C@H](NC(=O)[C@H](CCC(N)=O)NC(=O)[C@H](CCC(N)=O)NC(=O)[C@H](C)NC(=O)CNC(=O)[C@H](C)NC(=O)[C@H](CCCCN)NC(=O)CNC(=O)[C@@H](NC(=O)[C@H](CCC(N)=O)NC(=O)[C@H](CCCCN)NC(=O)[C@@H]1CCCN1C(=O)[C@H](CC(C)C)NC(=O)[C@H](Cc1ccc(O)cc1)NC(=O)[C@H](CCCCN)NC(=O)[C@H](C)NC(=O)CNC(=O)[C@H](C)NC(=O)[C@H](CCCCN)NC(=O)[C@H](Cc1ccccc1)NC(=O)[C@H](CC(C)C)NC(=O)[C@H](CO)NC(=O)[C@H](CO)NC(=O)[C@H](Cc1ccccc1)NC(=O)CN)C(C)C)C(N)=O [GFSSLFKAGAKYLPKQVGKAGAQQL] | –
≥ 1250 µM | ≥ 1250 µM | ≥ 1250 µM | ≥ 1250 µM | ≥ 2500 µM | ≥ 1250 µM | ≥ 1250 µM | ≥ 2500 µM | ≥ 1250 µM | ≥ 1250 µM | ≥ 1250 µM | ≥ 1250 µM | ≥ 1250 µM | – | – | – | – | 32 µM (≈ 30.4 µg/mL) | – | – | CC(C)C[C@H](NC(=O)[C@H](CC(C)C)NC(=O)[C@H](CC(N)=O)NC(=O)[C@H](CCC(=O)O)NC(=O)[C@H](CC(N)=O)NC(=O)[C@H](CC(C)C)NC(=O)[C@@H](N)C(C)C)C(=O)N[C@@H](Cc1cnc[nH]1)C(=O)O [VLNENLLH] | –
≥ 2500 µM | ≥ 2500 µM | ≥ 1250 µM | ≥ 1250 µM | ≥ 2500 µM | ≥ 2500 µM | ≥ 1250 µM | ≥ 2500 µM | ≥ 1250 µM | ≥ 1250 µM | ≥ 1250 µM | ≥ 1250 µM | ≥ 1250 µM | – | – | – | – | 32 µM (≈ 29.2 µg/mL) | – | – | CC(C)C[C@H](NC(=O)[C@H](CC(C)C)NC(=O)[C@H](CC(N)=O)NC(=O)[C@H](C)NC(=O)[C@H](CC(N)=O)NC(=O)[C@H](CC(C)C)NC(=O)[C@@H](N)C(C)C)C(=O)N[C@@H](CCCN=C(N)N)C(=O)O [VLNANLLR] | –
